Assay results as given in patent publication US12544395B2, “Combination compositions comprising a beta-lactamase inhibitor and uses thereof” (priority 2018, dated 2026).
Values after ≈ are worked out from the molar mass of the structure shown. Values joined by “and” are separate entries in the source; they are usually repeats but may differ in a detail not shown here. Equal values may be shown once.

How the values were obtained:
[1] = system: ESBL-expressing Enterobacteriaceae (n = 33); test: Broth microdilution MIC, ceftibuten/Compound 2 vs IV comparators; assay type: cell-based; conditions: for Number of strains at MIC value 0.5 mg/L / Number of strains at MIC value 1 mg/L / Number of strains at MIC value 2 mg/L / Number of strains at MIC value 4 mg/L / Number of strains at MIC value 8 mg/L / Number of strains at MIC value 16 mg/L / Number of strains at MIC value […] / Number of strains at MIC value ≤0.06 mg/L / Number of strains at MIC value ≥32 mg/L: ESBL-expressing (n = 33); for MIC50 / MIC90: iv
[2] = system: KPC-expressing Enterobacteriaceae (n = 77); test: organism not typed; assay type: cell-based; conditions: for Number of strains at MIC value 0.5 mg/L / Number of strains at MIC value 1 mg/L / Number of strains at MIC value 2 mg/L / Number of strains at MIC value 4 mg/L / Number of strains at MIC value 8 mg/L / Number of strains at MIC value 16 mg/L / Number of strains at MIC value […] / Number of strains at MIC value ≤0.06 mg/L / Number of strains at MIC value ≥32 mg/L: KPC-expressing (n = 77); for MIC50 / MIC90: iv
[3] = system: AmpC/CMY-expressing Enterobacteriaceae (n = 44); test: Broth microdilution MIC, ceftibuten/Compound 2 vs IV comparators; assay type: cell-based; conditions: for Number of strains at MIC value 0.5 mg/L / Number of strains at MIC value 1 mg/L / Number of strains at MIC value 2 mg/L / Number of strains at MIC value 4 mg/L / Number of strains at MIC value 8 mg/L / Number of strains at MIC value 16 mg/L / Number of strains at MIC value […] / Number of strains at MIC value ≤0.06 mg/L / Number of strains at MIC value ≥32 mg/L: AmpC/CMY-expressing (n = 44); for MIC50 / MIC90: iv
[4] = system: OXA-48-expressing Enterobacteriaceae (n = 39); test: as above

Structure (SMILES): C[C@@H](O)[C@H]1C(=O)N2C(C(=O)O)=C(S[C@@H]3CN[C@H](C(=O)N(C)C)C3)[C@H](C)[C@H]12 [Meropenem]
- Number of strains at MIC value 0.5 mg/L [1]: 0
- Number of strains at MIC value 1 mg/L [1]: 1
- Number of strains at MIC value 2 mg/L [1]: 1
- Number of strains at MIC value 4 mg/L [1]: 0
- Number of strains at MIC value 8 mg/L [1]: 1
- Number of strains at MIC value 16 mg/L [1]: 0
- Number of strains at MIC value […] [1]: 1 and 0
- Number of strains at MIC value ≤0.06 mg/L [1]: 29
- Number of strains at MIC value ≥32 mg/L [1]: 0
- MIC50 [1]: ≤ 0.06 µg/mL
- MIC90 [1]: 0.125 µg/mL (≈ 0.326 µM)
- Number of strains at MIC value 0.5 mg/L [2]: 1
- Number of strains at MIC value 1 mg/L [2]: 0
- Number of strains at MIC value 2 mg/L [2]: 3
- Number of strains at MIC value 4 mg/L [2]: 4
- Number of strains at MIC value 8 mg/L [2]: 11
- Number of strains at MIC value 16 mg/L [2]: 13
- Number of strains at MIC value […] [2]: 0
- Number of strains at MIC value ≤0.06 mg/L [2]: 1
- Number of strains at MIC value ≥32 mg/L [2]: 44
- MIC50 [2]: ≥ 32 µg/mL
- MIC90 [2]: ≥ 32 µg/mL
- Number of strains at MIC value 0.5 mg/L [3]: 2
- Number of strains at MIC value 1 mg/L [3]: 1
- Number of strains at MIC value 2 mg/L [3]: 0
- Number of strains at MIC value 4 mg/L [3]: 3
- Number of strains at MIC value 8 mg/L [3]: 0
- Number of strains at MIC value 16 mg/L [3]: 0
- Number of strains at MIC value […] [3]: 2
- Number of strains at MIC value ≤0.06 mg/L [3]: 34
- Number of strains at MIC value ≥32 mg/L [3]: 0
- MIC50 [3]: ≤ 0.06 µg/mL
- MIC90 [3]: 0.5 µg/mL (≈ 1.3 µM)
- MIC50 [4]: 2 µg/mL (≈ 5.22 µM)
- MIC90 [4]: 8 µg/mL (≈ 20.9 µM)

Structure (SMILES): CN(C)c1cc(NC(=O)CNC(C)(C)C)c(O)c2c1C[C@H]1C[C@H]3[C@H](N(C)C)C(O)=C(C(N)=O)C(=O)[C@@]3(O)C(O)=C1C2=O [Tigecycline]
- Number of strains at MIC value 0.5 mg/L [1]: 11
- Number of strains at MIC value 1 mg/L [1]: 3
- Number of strains at MIC value 2 mg/L [1]: 3
- Number of strains at MIC value 4 mg/L [1]: 2
- Number of strains at MIC value 8 mg/L [1]: 0
- Number of strains at MIC value 16 mg/L [1]: 0
- Number of strains at MIC value […] [1]: 4 and 10
- Number of strains at MIC value ≤0.06 mg/L [1]: 0
- Number of strains at MIC value ≥32 mg/L [1]: 0
- MIC50 [1]: 0.5 µg/mL (≈ 0.854 µM)
- MIC90 [1]: 2 µg/mL (≈ 3.41 µM)
- Number of strains at MIC value 0.5 mg/L [2]: 19
- Number of strains at MIC value 1 mg/L [2]: 34
- Number of strains at MIC value 2 mg/L [2]: 15
- Number of strains at MIC value 4 mg/L [2]: 5
- Number of strains at MIC value 8 mg/L [2]: 0
- Number of strains at MIC value 16 mg/L [2]: 0
- Number of strains at MIC value […] [2]: 0 and 4
- Number of strains at MIC value ≤0.06 mg/L [2]: 0
- Number of strains at MIC value ≥32 mg/L [2]: 0
- MIC50 [2]: 1 µg/mL (≈ 1.71 µM)
- MIC90 [2]: 2 µg/mL (≈ 3.41 µM)
- Number of strains at MIC value 0.5 mg/L [3]: 8
- Number of strains at MIC value 1 mg/L [3]: 10
- Number of strains at MIC value 2 mg/L [3]: 10
- Number of strains at MIC value 4 mg/L [3]: 4
- Number of strains at MIC value 8 mg/L [3]: 2
- Number of strains at MIC value 16 mg/L [3]: 0
- Number of strains at MIC value […] [3]: 4 and 6
- Number of strains at MIC value ≤0.06 mg/L [3]: 0
- Number of strains at MIC value ≥32 mg/L [3]: 0
- MIC50 [3]: 1 µg/mL (≈ 1.71 µM)
- MIC90 [3]: 4 µg/mL (≈ 6.83 µM)
- MIC50 [4]: 0.5 µg/mL (≈ 0.854 µM)
- MIC90 [4]: 2 µg/mL (≈ 3.41 µM)

Structure (SMILES): NC[C@H]1O[C@H](O[C@H]2[C@H](O)[C@@H](O[C@H]3O[C@H](CO)[C@@H](O)[C@H](N)[C@H]3O)[C@H](N)C[C@@H]2N)[C@H](N)C[C@@H]1O [Tobramycin]
- Number of strains at MIC value 0.5 mg/L [1]: 3
- Number of strains at MIC value 1 mg/L [1]: 5
- Number of strains at MIC value 2 mg/L [1]: 2
- Number of strains at MIC value 4 mg/L [1]: 1
- Number of strains at MIC value 8 mg/L [1]: 1
- Number of strains at MIC value 16 mg/L [1]: 4
- Number of strains at MIC value […] [1]: 0
- Number of strains at MIC value ≤0.06 mg/L [1]: 0
- Number of strains at MIC value ≥32 mg/L [1]: 17
- MIC50 [1]: ≥ 32 µg/mL
- MIC90 [1]: ≥ 32 µg/mL
- Number of strains at MIC value 0.5 mg/L [2]: 3
- Number of strains at MIC value 1 mg/L [2]: 0
- Number of strains at MIC value 2 mg/L [2]: 2
- Number of strains at MIC value 4 mg/L [2]: 0
- Number of strains at MIC value 8 mg/L [2]: 3
- Number of strains at MIC value 16 mg/L [2]: 3
- Number of strains at MIC value […] [2]: 0 and 1
- Number of strains at MIC value ≤0.06 mg/L [2]: 0
- Number of strains at MIC value ≥32 mg/L [2]: 65
- MIC50 [2]: ≥ 32 µg/mL
- MIC90 [2]: ≥ 32 µg/mL
- Number of strains at MIC value 0.5 mg/L [3]: 2
- Number of strains at MIC value 1 mg/L [3]: 2
- Number of strains at MIC value 2 mg/L [3]: 0
- Number of strains at MIC value 4 mg/L [3]: 3
- Number of strains at MIC value 8 mg/L [3]: 3
- Number of strains at MIC value 16 mg/L [3]: 6
- Number of strains at MIC value […] [3]: 0
- Number of strains at MIC value ≤0.06 mg/L [3]: 0
- Number of strains at MIC value ≥32 mg/L [3]: 28
- MIC50 [3]: ≥ 32 µg/mL
- MIC90 [3]: ≥ 32 µg/mL
- MIC50 [4]: 16 µg/mL (≈ 34.2 µM)
- MIC90 [4]: ≥ 32 µg/mL
